How the values were obtained:
A549 cells = assay: Mammalian cell toxicity (MTT assay) and selectivity index; assay type: cell-based, Human; settings: MTT, 48 h incubation
Description: (§1) Three clinical isolates of each species that form the C. haemulonii complex were used in this study: C. haemulonii (LIPCh4 from finger nail, LIPCh7 from toe nail, and LIPCh12 from blood), C. duobushaemulonii (LIPCh1 from finger nail, LIPCh6 from toe nail, and LIPCh8 from blood) and C. haemulonii var. vulnera (LIPCh5 from toe nail, LIPCh9 from urine, and LIPCh11 from blood) (Ramos et al., [2015]). The fungal isolates were identified by the automatized system VITEK® 2 and then characterized by ITS1-5.8S-ITS2 gene sequencing (Ramos et al., [2015]). Fungal cells were cultured in Sabouraud-dextrose medium under constant agitation (130 rpm) for 48 h at 37°C. Human lung adenocarcinoma A549 cells were maintained in culture flasks containing DMEM medium supplemented with 10% fetal bovine serum at 37°C in an atmosphere of 5% CO2.
The cytotoxicity was evaluated using the MTT [3-(4,5-dimethylthiazol-2-yl)-2,5-diphenyl tetrazolium bromide] (Sigma-Aldrich) assay (Mosmann, [1983]). A549 cells (10^4) were seeded into tissue culture plates (TPP, Switzerland) and cultured for 24 h at 37°C in a 5% CO2 in order to obtain cellular confluence. The wells were then washed twice with DMEM to remove non-adherent cells and the test compounds were added (in concentrations ranging from 0.0313 to 512 μg/mL) to plates containing DMEM, followed by a 48 h incubation period under the same conditions mentioned above. The cellular viability was evaluated by adding MTT to each well and incubating the plates in the dark for 3 h, allowing the viable cells containing active mitochondrial dehydrogenase enzymes to metabolize MTT-tetrazolium salt into purple formazan. The formazan crystals were then dissolved in DMSO (100 μL) and the absorbance (450 nm) measured using a Thermomax Molecular Device microplate reader. The concentration capable of reducing cellular viability by 50% (CC50) was calculated, and the selectivity index (SI) determined using the following equation: A549 CC50/C. haemulonii complex GM-MIC.

[1] = tested on: Candida haemulonii complex; assay: Biofilm-growing cells, overall across isolates; assay type: cell-based; settings: for Overall GM-bMIC: geometric mean across strains, values marked * do not include LIP Ch4 (>512)
Experimental: (§2) The effect of the compounds on biofilm-growing cells was determined using the previously described microtiter-based technique (Ramage et al., [2001]). The fungi (10^6 yeast cells) were incubated for 48 h at 37°C in 96-well polystyrene microtiter plates (Corning®, Corning Incorporated, USA) containing Sabouraud-dextrose broth to accommodate biofilm formation. Following biofilm formation, the culture medium was aspirated and non-adherent cells removed by thoroughly washing the wells three times with sterile PBS (0.15 M NaCl, 0.01 M phosphate buffer, pH 7.2). Afterwards, the compounds, at the same concentrations used in the planktonic assays, were added to the wells, and the plates were incubated for further 48 h at 37°C. The metabolic activity was then evaluated using a colorimetric assay that measures the metabolic reduction of 2,3-bis (2-methoxy-4-nitro-5-sulfophenyl)-5-[(phenylamino) carbonyl]-2H-tetrazolium hydroxide (XTT; Sigma-Aldrich) to a water-soluble, brown formazan product (Peeters et al., [2008]). The biofilm MIC (bMIC) for each compound was established as the minimal concentration capable of inhibiting 50% of metabolic activity when compared to compound-free wells (Ziccardi et al., [2015]).

[2] = tested on: Candida haemulonii var. vulnera; assay: Biofilm-growing cells, XTT assay, bMIC; assay type: cell-based; settings: for GM-bMIC: geometric mean, C. haemulonii var. vulnera isolates; for bMIC: mature biofilm, 48 h, 50% inhibition of metabolic activity
Experimental: as §2

Candida duobushaemulonii [3] = assay: Biofilm-growing cells, XTT assay, bMIC; assay type: cell-based; settings: for GM-bMIC: geometric mean, C. duobushaemulonii isolates; for bMIC: mature biofilm, 48 h, 50% inhibition of metabolic activity
Experimental: as §2

Candida haemulonii [4] = assay: Biofilm-growing cells, XTT assay, bMIC; assay type: cell-based; settings: for GM-bMIC: geometric mean, C. haemulonii isolates, values marked * do not include LIP Ch4 (>512); for bMIC: mature biofilm, 48 h, 50% inhibition of metabolic activity
Experimental: as §2

C. haemulonii complex = assay: Planktonic growth, overall across all nine isolates; assay type: cell-based, Candida haemulonii complex; settings: for Overall GM-MIC / MIC: geometric mean across all nine strains; for MIC: in μM, read-out: Overall GM-MIC
Description: as §1
(§3) Susceptibility profile assays were performed in accordance with the broth microdilution protocol described in the document M27-A3 published by the Clinical and Laboratory Standards Institutes (CLSI, [2008]). Samples of the test chelates were dissolved in DMSO (500 μL) and then serially diluted in a 96-well plate containing RPMI 1640 (Sigma-Aldrich, USA) to give the concentration range of 0.0625-32 mg/L. Aqueous solutions of the metal-free phen ligand and the simple metal salts, MnCl2, CuCl2, and AgNO3, were also screened over the same concentration range. Caspofungin (Sigma-Aldrich) was used as a classical antifungal agent able to block the growth of all clinical isolates of C. haemulonii species as previously reported by our research group (Ramos et al., [2015]). Water dilutions containing DMSO concentrations corresponding to those used to prepare the drug solutions were assessed in parallel. Untreated and compound-treated fungal cells were incubated at 37°C for 48 h and the minimal inhibitory concentration (MIC) was established as the lowest compound concentration where no cellular growth could be detected by visual inspection in accordance to the CLSI recommendation. The geometric mean of the MIC values (GM-MIC) of each compound against all the fungal isolates was calculated using the software, Microsoft Office Excel 2013.

[5] = tested on: Candida haemulonii var. vulnera; assay: Planktonic growth, broth microdilution (CLSI M27-A3), MIC; assay type: cell-based; settings: for GM-MIC: geometric mean of three C. haemulonii var. vulnera isolates; for MIC: planktonic, 48 h, 37°C
Description: as §1, §3

Candida duobushaemulonii [6] = assay: as above; assay type: cell-based; settings: for GM-MIC: geometric mean of three C. duobushaemulonii isolates; for MIC: planktonic, 48 h, 37°C
Description: as §1, §3

Candida haemulonii [7] = assay: as above; assay type: cell-based; settings: for GM-MIC: geometric mean of three C. haemulonii isolates; for MIC: planktonic, 48 h, 37°C
Description: as §1, §3

| Structure (SMILES) | A549 (CC50) (A549 cells) | Overall GM-bMIC ([1]; in μM) | Overall GM-bMIC [1] | GM-bMIC [2] | bMIC ([2]; isolate LIP Ch5) | bMIC ([2]; isolate LIP Ch9) | bMIC ([2]; isolate LIP Ch13) | GM-bMIC (Candida duobushaemulonii [3]) | bMIC (Candida duobushaemulonii [3]; isolate LIP Ch1) | bMIC (Candida duobushaemulonii [3]; isolate LIP Ch6) | bMIC (Candida duobushaemulonii [3]; isolate LIP Ch8) | GM-bMIC (Candida haemulonii [4]) | bMIC (Candida haemulonii [4]; isolate LIP Ch4) | bMIC (Candida haemulonii [4]; isolate LIP Ch7) | bMIC (Candida haemulonii [4]; isolate LIP Ch14) | Overall GM-MIC (C. haemulonii complex) | MIC (C. haemulonii complex) | GM-MIC [5] | MIC ([5]; isolate LIP Ch5) | MIC ([5]; isolate LIP Ch9) | other results |
| --- | --- | --- | --- | --- | --- | --- | --- | --- | --- | --- | --- | --- | --- | --- | --- | --- | --- | --- | --- | --- | --- |
| O=[N+]([O-])[O-].[Ag+] [AgNO3, reference compound] | 16.98 µg/mL | 172 µM | 29.34 mg/L | 40.32 mg/L | 128 mg/L | 64 mg/L | 8 mg/L | 32 mg/L | 16 mg/L | 16 mg/L | 128 mg/L | 16^* mg/L | >512 mg/L | 8 mg/L | 32 mg/L | 0.63 µg/mL | 3.93 µM | 0.5 µg/mL | 0.5 µg/mL | 0.5 µg/mL | decrease in activity on going from planktonic to biofilm cells ([1]; biofilm MIC versus planktonic MIC): 43.8 fold; effect on planktonic fungal growth/viability (in words) (C. haemulonii complex; nine clinical isolates, 0.0625-32 mg/L): appreciably deterred fungal growth; MIC ([5]; isolate LIP Ch11): 0.5 µg/mL; GM-MIC (Candida duobushaemulonii [6]): 0.63 µg/mL; MIC (Candida duobushaemulonii [6]; isolate LIP Ch1): 0.5 µg/mL; MIC (Candida duobushaemulonii [6]; isolate LIP Ch6): 0.5 µg/mL; MIC (Candida duobushaemulonii [6]; isolate LIP Ch8): 1 µg/mL; GM-MIC (Candida haemulonii [7]): 0.79 µg/mL; MIC (Candida haemulonii [7]; isolate LIP Ch4): 1 µg/mL; MIC (Candida haemulonii [7]; isolate LIP Ch7): 0.5 µg/mL; MIC (Candida haemulonii [7]; isolate LIP Ch12): 1 µg/mL |
| CCO.O.O.O.O.O.O.O=C([O-])c1cccc(C(=O)[O-])c1.[Cu+2].c1cnc2c(c1)ccc1cccnc12.c1cnc2c(c1)ccc1cccnc12 [compound 3, [Cu(isoph)(phen)2].6H2O.EtOH] | 0.89 µg/mL | 19.95 µM | 14.81 mg/L | 12.70 mg/L | 16 mg/L | 8 mg/L | 16 mg/L | 12.70 mg/L | 32 mg/L | 8 mg/L | 8 mg/L | 20.16 mg/L | 32 mg/L | 16 mg/L | 16 mg/L | 6.86 µg/mL | 9.21 µM | 6.35 µg/mL | 4 µg/mL | 8 µg/mL | MIC ([5]; isolate LIP Ch11): 8 µg/mL; GM-MIC (Candida duobushaemulonii [6]): 5.04 µg/mL; MIC (Candida duobushaemulonii [6]; isolate LIP Ch1): 4 µg/mL; MIC (Candida duobushaemulonii [6]; isolate LIP Ch6): 8 µg/mL; MIC (Candida duobushaemulonii [6]; isolate LIP Ch8): 4 µg/mL; GM-MIC (Candida haemulonii [7]): 10.08 µg/mL; MIC (Candida haemulonii [7]; isolate LIP Ch4): 8 µg/mL; MIC (Candida haemulonii [7]; isolate LIP Ch7): 8 µg/mL; MIC (Candida haemulonii [7]; isolate LIP Ch12): 16 µg/mL |
| CCO.O=C([O-])CCCCCCC(=O)[O-].[Cu+2].[Cu+2].[O-][Cl+3]([O-])([O-])[O-].[O-][Cl+3]([O-])([O-])[O-].c1cnc2c(c1)ccc1cccnc12.c1cnc2c(c1)ccc1cccnc12.c1cnc2c(c1)ccc1cccnc12.c1cnc2c(c1)ccc1cccnc12 [compound 5, [Cu2(oda)(phen)4](ClO4)2.2.76H2O.EtOH] | 0.98 µg/mL | 13.19 µM | 17.28 mg/L | 16 mg/L | 32 mg/L | 8 mg/L | 16 mg/L | 16 mg/L | 32 mg/L | 8 mg/L | 16 mg/L | 20.16 mg/L | 32 mg/L | 16 mg/L | 16 mg/L | 9.33 µg/mL | 7.09 µM | 10.08 µg/mL | 8 µg/mL | 16 µg/mL | MIC ([5]; isolate LIP Ch11): 8 µg/mL; GM-MIC (Candida duobushaemulonii [6]): 8 µg/mL; MIC (Candida duobushaemulonii [6]; isolate LIP Ch1): 8 µg/mL; MIC (Candida duobushaemulonii [6]; isolate LIP Ch6): 8 µg/mL; MIC (Candida duobushaemulonii [6]; isolate LIP Ch8): 8 µg/mL; GM-MIC (Candida haemulonii [7]): 10.08 µg/mL; MIC (Candida haemulonii [7]; isolate LIP Ch4): 8 µg/mL; MIC (Candida haemulonii [7]; isolate LIP Ch7): 8 µg/mL; MIC (Candida haemulonii [7]; isolate LIP Ch12): 16 µg/mL |
| O.O.O.O.O=C1C(=O)c2cccnc2-c2ncccc21.O=C1C(=O)c2cccnc2-c2ncccc21.O=C1C(=O)c2cccnc2-c2ncccc21.[Cu+2].[O-][Cl+3]([O-])([O-])[O-].[O-][Cl+3]([O-])([O-])[O-] [compound 6, [Cu(phendione)3](ClO4)2.4H2O] | 0.68 µg/mL | 28.42 µM | 27.43 mg/L | 32 mg/L | 32 mg/L | 32 mg/L | 32 mg/L | 12.70 mg/L | 16 mg/L | 16 mg/L | 8 mg/L | 50.80 mg/L | 256 mg/L | 32 mg/L | 16 mg/L | 9.33 µg/mL | 9.65 µM | 6.35 µg/mL | 4 µg/mL | 8 µg/mL | MIC ([5]; isolate LIP Ch11): 8 µg/mL; GM-MIC (Candida duobushaemulonii [6]): 8 µg/mL; MIC (Candida duobushaemulonii [6]; isolate LIP Ch1): 8 µg/mL; MIC (Candida duobushaemulonii [6]; isolate LIP Ch6): 16 µg/mL; MIC (Candida duobushaemulonii [6]; isolate LIP Ch8): 4 µg/mL; GM-MIC (Candida haemulonii [7]): 16 µg/mL; MIC (Candida haemulonii [7]; isolate LIP Ch4): 16 µg/mL; MIC (Candida haemulonii [7]; isolate LIP Ch7): 16 µg/mL; MIC (Candida haemulonii [7]; isolate LIP Ch12): 16 µg/mL |

Source: paper PMC5504357, “Antifungal Potential of Copper(II), Manganese(II) and Silver(I) 1,10-Phenanthroline Chelates Against Multidrug-Resistant Fungal Species Forming the Candida haemulonii Complex: Impact on the Planktonic and Biofilm Lifestyles” (Frontiers in Microbiology, 2017)
